US20250353841A1 (BIOGEN MA INC., priority 2022, published 2025)

Tested on: mutant Huntington (HTT) protein
Experiment: HTT Mutant HTRF iPSC assay (mHTT protein lowering)
Format: cell-based
Settings: human iPSC derived from a HTT patient with a poly-Q49 mutation

For `Cc1cn2nc(-c3cc(F)c4nc(NC5CCN(C6CCC6)CC5)oc4c3)cc(C)c2n1` [Compound 478, N-(1-cyclobutylpiperidin-4-yl)-6-(2,8-dimethylimidazo[1,2-b]pyridazin-6-yl)-4-fluorobenzo[d]oxazol-2-amine], which IC50 is on record?
The IC50 was under 100 nM.

For `CCN1CCC(Nc2nc3c(F)cc(-c4cc(C)c5nc(C)cn5n4)cc3o2)CC1` [Compound 479, 6-(2,8-dimethylimidazo[1,2-b]pyridazin-6-yl)-N-(1-ethylpiperidin-4-yl)-4-fluorobenzo[d]oxazol-2-amine], which IC50 is on record?
The IC50 was under 100 nM.

For `COCCN1CCC(Nc2nc3c(F)cc(-c4cc(C)c5nc(C)cn5n4)cc3o2)CC1` [Compound 480, 6-(2,8-dimethylimidazo[1,2-b]pyridazin-6-yl)-4-fluoro-N-(1-(2-methoxyethyl)piperidin-4-yl)benzo[d]oxazol-2-amine], which IC50 is on record?
The IC50 was under 100 nM.

`Cc1cn2nc(-c3cc(F)c4nc(NC5CCN(C6CCOC6)CC5)oc4c3)cc(C)c2n1` (stereo not shown) [Compound 481, 6-(2,8-dimethylimidazo[1,2-b]pyridazin-6-yl)-4-fluoro-N-(1-(tetrahydrofuran-3-yl)piperidin-4-yl)benzo[d]oxazol-2-amine] was tested. Which IC50 did it give?
Its IC50 is under 100 nM.

`Cc1cn2nc(-c3cc(F)c4nc(NC5CCN6CCCC6C5)oc4c3)cc(C)c2n1` (stereo not shown) [Compound 482, 6-(2,8-dimethylimidazo[1,2-b]pyridazin-6-yl)-4-fluoro-N-(octahydroindolizin-7-yl)benzo[d]oxazol-2-amine] was tested. Which IC50 did it give?
Its IC50 is under 100 nM.

How did the IC50 turn out when `Cc1cn2nc(-c3cc(F)c4nc(N5CCC(CN6CCCC6)C5)oc4c3)cc(C)c2n1` (stereo not shown) [Compound 483, 6-(2,8-dimethylimidazo[1,2-b]pyridazin-6-yl)-4-fluoro-2-(3-(pyrrolidin-1-ylmethyl)pyrrolidin-1-yl)benzo[d]oxazole] was run?
The IC50 was 100 to 1000 nM.

`Cc1cn2nc(-c3cc(F)c4nc(NC5CC(C)NC(C)C5)oc4c3)cc(C)c2n1` (stereo not shown) [Compound 484, 6-(2,8-dimethylimidazo[1,2-b]pyridazin-6-yl)-N-(2,6-dimethylpiperidin-4-yl)-4-fluorobenzo[d]oxazol-2-amine] was tested. Which IC50 did it give?
Its IC50 is under 100 nM.

`Cc1cn2nc(-c3cc(F)c4nc(NC5CCNC(C)(C)C5)oc4c3)cc(C)c2n1` (stereo not shown) [Compound 485, 6-(2,8-dimethylimidazo[1,2-b]pyridazin-6-yl)-N-(2,2-dimethylpiperidin-4-yl)-4-fluorobenzo[d]oxazol-2-amine] was tested. Which IC50 did it give?
The IC50 was under 100 nM.

With `Cc1cn2nc(-c3cc(F)c4nc(N5CCC(CN(C)CC6CC6)C5)oc4c3)cc(C)c2n1` (stereo not shown) [Compound 489, 1-cyclopropyl-N-((1-(6-(2,8-dimethylimidazo[1,2-b]pyridazin-6-yl)-4-fluorobenzo[d]oxazol-2-yl)pyrrolidin-3-yl)methyl)-N-methylmethanamine] as the compound, how does the IC50 read?
The IC50 was under 100 nM.

How did the IC50 turn out when `Cc1cn2nc(-c3cc(F)c4nc(N5CCCC(N6CCCCC6)C5)oc4c3)cc(C)c2n1` (stereo not shown) [Compound 490, 2-([1,3′-bipiperidin]-1′-yl)-6-(2,8-dimethylimidazo[1,2-b]pyridazin-6-yl)-4-fluorobenzo[d]oxazole] was run?
Its IC50 is 100 to 1000 nM.

`Cc1cn2nc(-c3cc(F)c4nc(N5CCC(CN(C)C)C5)oc4c3)cc(C)c2n1` (stereo not shown) [Compound 491, 1-(1-(6-(2,8-dimethylimidazo[1,2-b]pyridazin-6-yl)-4-fluorobenzo[d]oxazol-2-yl)pyrrolidin-3-yl)-N,N-dimethylmethanamine] was tested. Which IC50 did it give?
Its IC50 is 100 to 1000 nM.

With `CCC1(N(C)C)CCN(c2nc3c(F)cc(-c4cc(C)c5nc(C)cn5n4)cc3o2)CC1` [Compound 492, 1-(6-(2,8-dimethylimidazo[1,2-b]pyridazin-6-yl)-4-fluorobenzo[d]oxazol-2-yl)-4-ethyl-N,N-dimethylpiperidin-4-amine] as the compound, how does the IC50 read?
The IC50 was under 100 nM.

How did the IC50 turn out when `Cc1cn2nc(-c3cc(F)c4nc(N5CCC56CCN(C)CC6)oc4c3)cc(C)c2n1` [Compound 493, 6-(2,8-dimethylimidazo[1,2-b]pyridazin-6-yl)-4-fluoro-2-(7-methyl-1,7-diazaspiro[3.5]nonan-1-yl)benzo[d]oxazole] was run?
The IC50 was 100 to 1000 nM.

With `Cc1cn2nc(-c3cc(F)c4nc(N5CCC(N6CCC6)CC5)oc4c3)cc(C)c2n1` [Compound 494, 2-(4-(azetidin-1-yl)piperidin-1-yl)-6-(2,8-dimethylimidazo[1,2-b]pyridazin-6-yl)-4-fluorobenzo[d]oxazole] as the compound, how does the IC50 read?
The IC50 was 100 to 1000 nM.

How did the IC50 turn out when `Cc1cn2nc(-c3cc(F)c4nc(N5CCC(N(C)C)CC5)oc4c3)cc(C(F)F)c2n1` [Compound 495, 1-(6-(8-(difluoromethyl)-2-methylimidazo[1,2-b]pyridazin-6-yl)-4-fluorobenzo[d]oxazol-2-yl)-N,N-dimethylpiperidin-4-amine] was run?
Its IC50 is under 100 nM.

`Cc1nc2c(C)cc(-c3cc(F)c4nc(N5CCC(N(C)C)CC5)oc4c3)nn2n1` [Compound 496, 1-(6-(2,8-dimethyl-[1,2,4]triazolo[1,5-b]pyridazin-6-yl)-4-fluorobenzo[d]oxazol-2-yl)-N,N-dimethylpiperidin-4-amine] was tested. Which IC50 did it give?
The IC50 was 100 to 1000 nM.

Which IC50 does the source give for `Cc1cn2nc(-c3cc(F)c4nc(N5CCC(N(C)C)CC5)oc4c3)cc2c(C)n1` [Compound 497, 1-(6-(4,6-dimethylpyrazolo[1,5-a]pyrazin-2-yl)-4-fluorobenzo[d]oxazol-2-yl)-N,N-dimethylpiperidin-4-amine] here?
Its IC50 is 100 to 1000 nM.

How did the IC50 turn out when `Cc1nc2c(C)cc(-c3cc(F)c4nc(N5CCC6(CCN(C)CC6)C5)oc4c3)nn2n1` [Compound 498, 6-(2,8-dimethyl-[1,2,4]triazolo[1,5-b]pyridazin-6-yl)-4-fluoro-2-(8-methyl-2,8-diazaspiro[4.5]decan-2-yl)benzo[d]oxazole] was run?
Its IC50 is 100 to 1000 nM.

How did the IC50 turn out when `Cc1cn2nc(-c3cc(F)c4nc(N5CCC6(CCN(C)CC6)C5)oc4c3)cc2c(C)n1` [Compound 499, 6-(4,6-dimethylpyrazolo[1,5-a]pyrazin-2-yl)-4-fluoro-2-(8-methyl-2,8-diazaspiro[4.5]decan-2-yl)benzo[d]oxazole] was run?
The IC50 was 100 to 1000 nM.

Which IC50 does the source give for `Cc1cn2nc(-c3cc(F)c4nc(N5CCCC(N(C)C)C5)oc4c3)cc(C)c2n1` (stereo not shown) [Compound 500, 1-(6-(2,8-dimethylimidazo[1,2-b]pyridazin-6-yl)-4-fluorobenzo[d]oxazol-2-yl)-N,N-dimethylpiperidin-3-amine] here?
The IC50 was 100 to 1000 nM.

`Cc1cn2nc(-c3cc(F)c4nc(N5CCC6(CCN(C)C6)C5)oc4c3)cc(C)c2n1` (stereo not shown) [Compound 501, 6-(2,8-dimethylimidazo[1,2-b]pyridazin-6-yl)-4-fluoro-2-(7-methyl-2,7-diazaspiro[4.4]nonan-2-yl)benzo[d]oxazole] was tested. Which IC50 did it give?
Its IC50 is 100 to 1000 nM.

`CCN1CCC(N(C)c2nc3c(F)cc(-c4cc(C)c5nc(C)cn5n4)cc3o2)CC1` [Compound 502, 6-(2,8-dimethylimidazo[1,2-b]pyridazin-6-yl)-N-(1-ethylpiperidin-4-yl)-4-fluoro-N-methylbenzo[d]oxazol-2-amine] was tested. Which IC50 did it give?
Its IC50 is under 100 nM.

How did the IC50 turn out when `CCN1CCC(N(C)c2nc3c(F)cc(-c4cc(C)c5nc(C)cn5n4)cc3o2)CC1C` (stereo not shown) [Compound 503, 6-(2,8-dimethylimidazo[1,2-b]pyridazin-6-yl)-N-(1-ethyl-2-methylpiperidin-4-yl)-4-fluoro-N-methylbenzo[d]oxazol-2-amine] was run?
Its IC50 is under 100 nM.

`Cc1cn2nc(-c3cc(F)c4nc(N(C)C5CC(C)(C)NC(C)(C)C5)oc4c3)ccc2n1` [Compound 504, 4-fluoro-N-methyl-6-(2-methylimidazo[1,2-b]pyridazin-6-yl)-N-(2,2,6,6-tetramethylpiperidin-4-yl)benzo[d]oxazol-2-amine] was tested. Which IC50 did it give?
The IC50 was 100 to 1000 nM.

For `COc1cc(-c2cc(F)c3nc(N4CCC5(CCN(C)CC5)C4)oc3c2)nn2nc(C)nc12` [Compound 505, 4-fluoro-6-(8-methoxy-2-methyl-[1,2,4]triazolo[1,5-b]pyridazin-6-yl)-2-(8-methyl-2,8-diazaspiro[4.5]decan-2-yl)benzo[d]oxazole], which IC50 is on record?
The IC50 was under 100 nM.

`Cc1cn2nc(-c3cc(F)c4nc(N5CCC(N(C)C)CC5)oc4c3)cc(C(F)(F)F)c2n1` [Compound 506, 1-(4-fluoro-6-(2-methyl-8-(trifluoromethyl)imidazo [1,2-b]pyridazin-6-yl)benzo[d]oxazol-2-yl)-N,N-dimethylpiperidin-4-amine] was tested. Which IC50 did it give?
The IC50 was under 100 nM.

With `Cc1cn2nc(-c3cc(F)c4nc(N5CCC6(CCN(C)CC6)C5)oc4c3)cc(C(F)F)c2n1` [Compound 507, 6-(8-(difluoromethyl)-2-methylimidazo[1,2-b]pyridazin-6-yl)-4-fluoro-2-(8-methyl-2,8-diazaspiro[4.5]decan-2-yl)benzo[d]oxazole] as the compound, how does the IC50 read?
The IC50 was under 100 nM.

For `Cc1cn2nc(-c3cc(F)c4nc(N5CCC6(CCCN6C)CC5)oc4c3)cc(C)c2n1` [Compound 514, 6-(2,8-dimethylimidazo[1,2-b]pyridazin-6-yl)-4-fluoro-2-(1-methyl-1,8-diazaspiro[4.5]decan-8-yl)benzo[d]oxazole], which IC50 is on record?
The IC50 was under 100 nM.

`Cc1cn2nc(-c3cc(F)c4nc(N5CCC6(CCN(C)CC6)CC5)oc4c3)cc(C)c2n1` [Compound 515, 6-(2,8-dimethylimidazo[1,2-b]pyridazin-6-yl)-4-fluoro-2-(9-methyl-3,9-diazaspiro[5.5]undecan-3-yl)benzo[d]oxazole] was tested. Which IC50 did it give?
The IC50 was 100 to 1000 nM.

`Cc1cn2nc(-c3cc(F)c4nc(N5CCC6(CCN(C)CC6)C5)oc4c3)cc(C(F)(F)F)c2n1` [Compound 520, 4-fluoro-6-(2-methyl-8-(trifluoromethyl)imidazo [1,2-b]pyridazin-6-yl)-2-(8-methyl-2,8-diazaspiro[4.5]decan-2-yl)benzo[d]oxazole] was tested. Which IC50 did it give?
Its IC50 is under 100 nM.

How did the IC50 turn out when `Cc1cn2cc(-c3cc(F)c4oc(N(C)CCN5CCOCC5)nc4c3)cc(F)c2n1` [Compound 532, 7-fluoro-5-(8-fluoro-2-methylimidazo[1,2-a]pyridin-6-yl)-N-methyl-N-(2-morpholinoethyl)benzo [d]oxazol-2-amine] was run?
Its IC50 is 1000 to 9000 nM.

Which IC50 does the source give for `CCN1CCC(N(C)c2nc3cc(-c4cc(C)c5nc(C)cn5n4)cc(F)c3o2)CC1C` [Compound 533, rel-5-(2,8-dimethylimidazo[1,2-b]pyridazin-6-yl)-N-((2S,4S)-1-ethyl-2-methylpiperidin-4-yl)-7-fluoro-N-methylbenzo[d]oxazol-2-amine] here?
Its IC50 is 1000 to 9000 nM.

`Cc1cn2cc(-c3cc(Cl)c4oc(C5CCNCC5)nc4c3)cc(F)c2n1` [Compound 534, 7-chloro-5-(8-fluoro-2-methylimidazo[1,2-a]pyridin-6-yl)-2-(piperidin-4-yl)benzo[d]oxazole] was tested. Which IC50 did it give?
The IC50 was 1000 to 9000 nM.

How did the IC50 turn out when `Cc1cn2nc(-c3cc(Cl)c4oc(C5CCNCC5)nc4c3)cc(C)c2n1` [Compound 535, 7-chloro-5-(2,8-dimethylimidazo[1,2-b]pyridazin-6-yl)-2-(4-piperidyl)-1,3-benzoxazole] was run?
Its IC50 is 1000 to 9000 nM.
